Laboratory results reported in patent publication US20250195530A1, “POLQ INHIBITORS” (ASTRAZENECA AB, priority 2022, published 2025).
Like-named read-outs stand apart in the source and are kept apart here.

Test system: DLD-1 BRCA2−/− cells
Test: Homologous recombination synthetic lethal inhibition of proliferation, DLD-1 BRCA2-/- (Cell Titre Glo 3D)
Type: cell-based
Details: for IC50: Homo sapiens
Excerpt: This assay identifies anti-proliferative effects of POLQ compounds in the homologous recombination deficient colorectal cell line DLD-1 BRCA2−/− over 8-9 population doublings (7 days for DLD-1 and 12 days for DLD-1 BRCA2−/−). DLD1 BRCA2 wt are used as a control to detect cell toxic effects not specific to homologous recombination deficiency.
DLD-1 BRCA2−/− and DLD-1 cells were kept in continuous culture in Assay Medium (RPMI 1640 phenol red free (Sigma R7509) containing 1% GlutaMAX (Gibco 35050) and 10% Foetal Bovine Serum (Gibco 10270-106)). On the day of the assay cells in culture of ˜80-90% confluent were used. Cell monolayers were washed with 10 mL PBS, then removed and added 2 mL TrypLE Express (Gibco 12604). The cells with TrypLE Express were incubated for 5 minutes in cell culture incubator and then the detached cells resuspend in 15 mL Assay Medium. Cells were counted using a ViCell and the cell images were monitored for clumps of cells, ideally they should be single or <3 cell clusters. The cells were diluted to 3,000 cells/mL of DLD-1 BRCA2−/− and 1,500 cells/mL of DLD-1 in Assay Medium and 100 μL added per well of transparent bottomed, black, tissue culture-treated 96-well plates (CoStar, No. 3904) Assay Ready Plates. The Assay Ready Plates contain a 10 point 10 μM to 0.51 nM dose range with three-fold dilutions in DMSO with a final volume of 100 nL. The plates were incubated at 37° C. with 5% C02 for 6 days. On day 6, 100 μL/well of Assay Medium was added to duplicate Assay Ready Plates. 90 μL of culture medium was removed from the cell plates and replenished with the Assay Media and compounds from the duplicate Assay Ready Plates using the Bravo. The plates were further incubated at 37° C. with 5% CO2. On day 7 the plates containing DLD-1 and Cell Titre Glo 3D (Promega G9683) were equilibrated to room temperature, then 60 μL of Cell Titre Glo 3D was added per well and incubated on a shaking platform for 30 min. Plates were read on the Envision measuring luminescence for 1 second per well. On day 12 the plates containing DLD-1 BRCA2−/− cells and Cell Titre Glo 3D (Promega G9683) were equilibrated to room temperature, then 60 μL Cell Titre Glo 3D added per well and incubated on a shaking platform for 30 min. Plates were read on the Envision measuring luminescence for 1 second per well. The data was exported into a suitable software package (such as Genedata) to perform curve fitting analysis. Inhibition of cell proliferation was expressed as an IC5o value and was determined by calculation of the concentration of compound that was required to give a 50% reduction of the average maximum Total Intensity signal.

[1] = DLD-1, proliferation, luminescence, taken as DLD-1 BRCA2-/-, read-out: POLQ PD Prolif Lumin (converted)
[2] = DLD-1, first proliferation column (c5), DLD-1 BRCA2-/-, read-out: POLQ PD Prolif Lumin (converted)
[3] = DLD-1, first proliferation column, DLD-1 BRCA2-/-, read-out: POLQ PD Prolif Lumin (converted)
[4] = DLD-1, 288 h, DLD-1 BRCA2−/− cells, 12 days, read-out: POLQ PD Prolif Lumin BRCA2 −/− mean pIC50 (converted)

Compound CC(CCOc1ccc(-c2nc3c(OC4(C)CC4)ncnc3n2Cc2cccc(C(F)(F)F)c2)c(Cl)c1)C(=O)O (single isomer, unassigned) [Example T396, 4-(3-chloro-4-(6-(1-methylcyclopropoxy)-9-(3-(trifluoromethyl)benzyl)-9H-purin-8-yl)phenoxy)-2-methylbutanoic acid] has an IC50 [1] of 251 nM.
Work on CC(CCOc1ccc(-c2nc3c(OC4(C)CC4)ncnc3n2Cc2cccc(C(F)F)c2)c(Cl)c1)C(=O)O (single isomer, unassigned) [Example T412, 4-(3-chloro-4-(9-(3-(difluoromethyl)benzyl)-6-(1-methylcyclopropoxy)-9H-purin-8-yl)phenoxy)-2-methylbutanoic acid] yielded an IC50 [1] of 251 nM.
CC(CCOc1ccc(-c2nc3c(OC4(C)CC4)ncnc3n2Cc2ccccc2C(F)F)c(Cl)c1)C(=O)O (single isomer, unassigned) [Example T414, 4-(3-chloro-4-(9-(2-(difluoromethyl)benzyl)-6-(1-methylcyclopropoxy)-9H-purin-8-yl)phenoxy)-2-methylbutanoic acid] showed an IC50 [1] of 1580 nM.
Work on CC(CCCOc1ccc(-c2nc3c(OC4(C)CC4)ncnc3n2Cc2cccc(Cl)c2)c(Cl)c1)C(=O)O (single isomer, unassigned) [Example T438, 5-(3-chloro-4-(9-(3-chlorobenzyl)-6-(1-methylcyclopropoxy)-9H-purin-8-yl)phenoxy)-2-methylpentanoic acid] yielded an IC50 [1] of 126 nM.
Compound CC(CCCOc1cccc(-c2nc3c(OC4(C)CC4)ncnc3n2Cc2cccc(Cl)c2)c1Cl)C(=O)O (single isomer, unassigned) [Example T443, 5-(2-chloro-3-(9-(3-chlorobenzyl)-6-(1-methylcyclopropoxy)-9H-purin-8-yl)phenoxy)-2-methylpentanoic acid] has an IC50 [1] of 79.4 nM.
In the case of COc1cc(Cl)cc(Cn2c(-c3ccc(OCCC(C)C(=O)O)cc3Cl)nc3c(OC4(C)CC4)ncnc32)c1 (single isomer, unassigned) [Example T446, 4-(3-chloro-4-(9-(3-chloro-5-methoxybenzyl)-6-(1-methylcyclopropoxy)-9H-purin-8-yl)phenoxy)-2-methylbutanoic acid], the IC50 [1] is reported as 316 nM.
Compound COc1cccc(Cn2c(-c3ccc(OCCC(C)C(=O)O)cc3Cl)nc3c(OC4(C)CC4)ncnc32)c1 (single isomer, unassigned) [Example T455, 4-(3-chloro-4-(9-(3-methoxybenzyl)-6-(1-methylcyclopropoxy)-9H-purin-8-yl)phenoxy)-2-methylbutanoic acid] has an IC50 [1] of 1580 nM.
Cc1c(Cn2c(-c3ccc(OCCC(C)C(=O)O)cc3Cl)nc3c(OC4(C)CC4)ncnc32)cccc1C(F)(F)F (single isomer, unassigned) [Example T534, 4-(3-chloro-4-(9-(2-methyl-3-(trifluoromethyl)benzyl)-6-(1-methylcyclopropoxy)-9H-purin-8-yl)phenoxy)-2-methylbutanoic acid] gave an IC50 [2] of 3160 nM.
For Cc1ccnc(Cn2c(-c3ccc(OC4CCc5nccn5C4)cc3Cl)nc3c(OC4(C)CC4)ncnc32)c1 (single isomer, unassigned) [Example T536, 8-(2-chloro-4-((5,6,7,8-tetrahydroimidazo[1,2-a]pyridin-6-yl)oxy)phenyl)-6-(1-methylcyclopropoxy)-9-((4-methylpyridin-2-yl)methyl)-9H-purine], the IC50 [2] was 501 nM.
With CC(CCOc1ccc(-c2nc3c(OC4(C)CC4)ncnc3n2Cc2cccc(C(C)(F)F)c2)c(Cl)c1)C(=O)O (single isomer, unassigned) [Example T545, 4-(3-chloro-4-(9-(3-(1,1-difluoroethyl)benzyl)-6-(1-methylcyclopropoxy)-9H-purin-8-yl)phenoxy)-2-methylbutanoic acid] the IC50 [2] was 1000 nM.
Work on Cc1ccc(C)c(Cn2c(-c3ccc(OCCC(C)C(=O)O)cc3Cl)nc3c(OC4(C)CC4)ncnc32)c1 (single isomer, unassigned) [Example T572, 4-(3-chloro-4-(9-(2,5-dimethylbenzyl)-6-(1-methylcyclopropoxy)-9H-purin-8-yl)phenoxy)-2-methylbutanoic acid] yielded an IC50 [2] of 631 nM.
In the case of Cc1ccc(C)c(Cn2c(-c3ccc(OCCC(C)C(=O)O)cc3Cl)nc3c(OC4(C)CC4)ncnc32)c1 (single isomer, unassigned) [Example T573, 4-(3-chloro-4-(9-(2,5-dimethylbenzyl)-6-(1-methylcyclopropoxy)-9H-purin-8-yl)phenoxy)-2-methylbutanoic acid], the IC50 [3] is reported as 501 nM.
CC(CCOc1ccc(-c2nc3c(OC4(C)CC4)ncnc3n2Cc2ccccc2C2CC2)c(Cl)c1)C(=O)O (single isomer, unassigned) [Example T599, 4-(3-chloro-4-(9-(2-cyclopropylbenzyl)-6-(1-methylcyclopropoxy)-9H-purin-8-yl)phenoxy)-2-methylbutanoic acid] gave an IC50 [3] of 631 nM.
For CC(CCOc1ccc(-c2nc3c(OC4(C)CC4)ncnc3n2Cc2ccccc2C2CC2)c(Cl)c1)C(=O)O (single isomer, unassigned) [Example T600, 4-(3-chloro-4-(9-(2-cyclopropylbenzyl)-6-(1-methylcyclopropoxy)-9H-purin-8-yl)phenoxy)-2-methylbutanoic acid], the “POLQ PD Prolif Lumin” value (DLD-1 BRCA2-/-) was 6.3.
In the case of CC(COc1cccc(-c2nc3c(OC4(C)CC4)ncnc3n2Cc2cc(Cl)ccc2F)c1Cl)CC(=O)O (single isomer, unassigned) [Example U33, 4-(2-chloro-3-(9-(5-chloro-2-fluorobenzyl)-6-(1-methylcyclopropoxy)-9H-purin-8-yl)phenoxy)-3-methylbutanoic acid], the IC50 (DLD-1, DLD-1 BRCA2 −/−, mean, read-out: POLQ PD Prolif Lumin BRCA2 −/− mean pIC50 (converted)) is reported as 15.8 nM.
CC(COc1cccc(-c2nc3c(OC4(C)CC4)ncnc3n2Cc2cc(Cl)ccc2F)c1Cl)CC(=O)O (single isomer, unassigned) [Example U34, 4-(2-chloro-3-(9-(5-chloro-2-fluorobenzyl)-6-(1-methylcyclopropoxy)-9H-purin-8-yl)phenoxy)-3-methylbutanoic acid] was tested, and the “POLQ PD Prolif Lumin BRCA2 −/− mean pIC50” value (DLD-1 BRCA2 −/−, mean) was 7.5.
In the case of COc1ccc(F)cc1Cn1c(-c2cccc(OCC(C)CC(=O)O)c2Cl)nc2c(OC3(C)CC3)ncnc21 (single isomer, unassigned) [Example U80, 4-(2-chloro-3-(9-(5-fluoro-2-methoxybenzyl)-6-(1-methylcyclopropoxy)-9H-purin-8-yl)phenoxy)-3-methylbutanoic acid], the “POLQ PD Prolif Lumin BRCA2 −/− mean pIC50” value (DLD-1 BRCA2 −/−, mean) is reported as 8.
CC1NCCN(CCOc2ccc(-c3nc4c(OC5(C)CC5)ncnc4n3Cc3ccccc3)c(Cl)c2)C1=O (single isomer, unassigned; isomer 1) [Example R13, 1-(2-(4-(9-benzyl-6-(1-methylcyclopropoxy)-9H-purin-8-yl)-3-chlorophenoxy)ethyl)-3-methylpiperazin-2-one (Isomer 1)] was tested, and the IC50 [4] was 200 nM.
With CC1NCCN(CCOc2ccc(-c3nc4c(OC5(C)CC5)ncnc4n3Cc3ccccc3)c(Cl)c2)C1=O (single isomer, unassigned; isomer 2) [Example R14, 1-(2-(4-(9-benzyl-6-(1-methylcyclopropoxy)-9H-purin-8-yl)-3-chlorophenoxy)ethyl)-3-methylpiperazin-2-one (Isomer 2)] the “POLQ PD Prolif Lumin BRCA2 −/− mean pIC50” value (DLD-1 BRCA2−/− cells, 12 days) was 6.8.
In the case of CC1(Oc2ncnc3c2nc(-c2ccc(OCCNC(=O)CO)cc2Cl)n3Cc2ccccc2)CC1 [Example D26, N-(2-(4-(9-benzyl-6-(1-methylcyclopropoxy)-9H-purin-8-yl)-3-chlorophenoxy)ethyl)-2-hydroxyacetamide], the IC50 [4] is reported as 100 nM.
